According to patent publication US20090270255A1 (priority 2005, published 2009):
Like-named read-outs stand apart in the source and are kept apart here.

Tested on: Pyricularia oryzae
Format: cell-based
[1] = single active compound, conc. 1 ppm, MTP measured at 405 nm on day 7 after inoculation, 18° C.

| Compound | Observed effect (%) [1] | Observed effect (%) (single active compound, conc. 4 ppm, MTP measured at 405 nm on day 7 after inoculation, 18° C.) | Observed effect (%) |
| --- | --- | --- | --- |
| Fc1ccc(C2(Cn3cncn3)OC2c2ccccc2Cl)cc1 (stereo not shown) [Epoxiconazole, epoxiconazole] | 0% | – | – |
| CC1(C)CC/C(=C\c2ccc(Cl)cc2)C1(O)Cn1cncn1 (stereo not shown) [Triticonazole, triticonazole] | 3% | 13% | – |
| bromuconazole | – | – | 0% |
